From patent US20030053995A1 (priority 2001, published 2003)
Where two headings read alike, the source gives them in different places. Starred links: 1 amine or outer side, 2 acyl side, 3 side chain; linkers in the order of their positions; H or OH if unused. Positions of bridges follow the written chain, without caps; N, C: chain ends. Non-standard residues stand in square brackets, D forms with d. Residues, ends and D or L forms follow the SMILES beside them. Chains are numbered I, II in the order given. Actinocin(9to1) = Cc1c2oc3c(C)ccc(C(=O)[*:1])c3nc-2c(C(=O)[*:2])c(N)c1=O; NMeV = CN[C@H](C(=O)O)C(C)C; Sar = CNCC(=O)O

Experiments:
[1] = cited from earlier work; for binding to plasma proteins: result in words; for dose excreted/detected intact in the urine: in vivo; for half-life of disappearance from plasma: after intravenous injection, after distribution
[2] = cited from earlier work
[3] = tested on: ATRS (AT-rich consensus sequence) luciferase reporter with TK minimal promoter; assay: EGF activation of ATRS luciferase reporter; format: cell-based
Excerpt: (FIG. 6A) A431, (FIG. 6B) MDA-MB-468, (FIG. 6C) HBL 100, and (FIG. 6D) CHO cells.
Next, four repeats of either the ATRS sites or the mutated sites were constructed in a luciferase reporter construct containing the mouse thymidine kinase gene (TK) minimal promoter. […] EGFR-dependent activation, however, could be restored in these two cell lines upon the cotransfection of the EGFR expression vector. Thus, the ATRS, which can bind to nuclear EGFR complex, responds to EGFR-dependent activation, whereas the mutant ATRS, which fails to bind to nuclear EGFR, loses it ability to respond to the EGFR-dependent activation.
Plasmids and transfection. The cytoplasmic domain (645-1186), tyrosine kinase domain (645-1011), and C-terminal proline rich region (1011-1086) of human EGFR were amplified by PCR and subcloned in frame into pSG424 to generate for each domain a fusion protein containing GAL4 DNA binding proteins. The fusion protein constructs were then transfected into a variety of cell lines along with GAL4CAT or GAL4Luc reporter plasmids via liposomal DC-Cole provide by Dr. Leaf Huang at University of Pittsburgh.

[4] = tested on: Cyclin D1 promoter (Cyclin D1-luc) in MDA-MB-468 cells; assay: EGF activation of Cyclin D1 promoter luciferase reporter; format: cell-based; conditions: EGF 100 ng/ml
Excerpt: In FIG. 7A, MDA-MB-468 cells were transfected with a luciferase vector containing the cyclin D1 promoter with two intact ATRS or the same promoter with the ATRS mutated. […] After precipitation with the EGFR antibodies (1 Santa Cruz, 2 NeoMarkers) or normal rabbit IgG, cyclin D1 promoter region was amplified by PCR. Input nuclear DNA (In) or water (dw) were used as PCR controls.
Targets for nuclear EGFR were identified. Since nuclear EGFR correlated with highly proliferative activity of cells, it was suspected that its target genes were likely involved in cell proliferation. One of the candidates, Cyclin D1, is a cell-cycle regulator essential for G1 phase progression. […] Two ATRS sequences are located in the proximal region of Cyclin D1 promoter between nucleotide −74 to −70 (TTTAT; SEQ ID NO:3) and −31 to −27 (TTTGT; SEQ ID NO:4), respectively. To test whether these two ATRS in Cyclin D1 promoter were responsive to EGFR activity, the reporter gene containing 163 bp of the Cyclin Dl promoter (Cyclin D1-luc) was tested. Many known transcription factor-binding sites had been eliminated from this construct but it still contained two ATRS described above.

[5] = EGFR-overexpressing cell lines A431 and MDA-MB-468, EGF 100 ng/ml

## CC[C@]1(O)C[C@H]2CN(CCc3c([nH]c4ccccc34)[C@@](C(=O)OC)(c3cc4c(cc3OC)N(C=O)[C@H]3[C@@](O)(C(=O)OC)[C@H](OC(C)=O)[C@]5(CC)C=CCN6CC[C@]43[C@@H]65)C2)C1 [Vincristine]
[1]
  binding to plasma proteins: bind to plasma proteins

## Cc1c2oc3c(C)ccc(C(=O)N[C@@H]4C(=O)N[C@H](C(C)C)C(=O)N5CCC[C@H]5C(=O)N(C)CC(=O)N(C)[C@@H](C(C)C)C(=O)O[C@@H]4C)c3nc-2c(C(=O)N[C@@H]2C(=O)N[C@H](C(C)C)C(=O)N3CCC[C@H]3C(=O)N(C)CC(=O)N(C)[C@@H](C(C)C)C(=O)O[C@@H]2C)c(N)c1=O [Actinomycin D] (I: T[dV]P[Sar][NMeV] / II: T[dV]P[Sar][NMeV]; ester I:1-I:C, II:1-II:C; linker I:N-II:N via Actinocin(9to1))
[1]
  dose excreted/detected intact in the urine: 10%

## O=NN(CCCl)C(=O)NCCCl [Carmustine, 1,3bis (2-chloroethyl)-1-nitrosourea]
[2]; result in words
  solubility in organic solvents / alcohol and lipids: highly soluble in alcohol and lipids

## CC[C@]1(O)C[C@@H]2CN(CCc3c([nH]c4ccccc34)[C@@](C(=O)OC)(c3cc4c(cc3OC)N(C)[C@H]3[C@@](O)(C(=O)OC)[C@H](OC(C)=O)[C@]5(CC)C=CCN6CC[C@]43[C@@H]65)C2)C1 [Vinblastine]
[1]; first of two half-lives
  half-life of disappearance from plasma: approximately 1 hours
[1]; second of two half-lives
  half-life of disappearance from plasma: ~20 h
[1]
  dose excreted/detected intact in the urine: Approximately 15%
  binding to plasma proteins: bind to plasma proteins

## EGF: epidermal growth factor, ligand for EGFR
[3]; [5]
  activation of mutant ATRS reporter construct: only weakly activate
  activation of wild-type ATRS reporter construct: strongly activate
[3]; cells with low (HBL100) or no EGFR (CHO), EGF 100 ng/ml
  activation of wild type or mutant ATRS reporter: neither wild type nor the mutant reporter could be activated
[4]
  activation of Cyclin D1-luc(m) reporter with both ATRS mutated: abolished
  activation of wild-type Cyclin D1-luc reporter: up to four fold

## O=NN(CCCl)C(=O)NC1CCCCC1 [Lomustine, 1-(2-chloro-ethyl)-3-cyclohexyl-1 nitrosourea]
[1]; 15 minutes after intravenous administration
  tissue levels relative to plasma levels: comparable to plasma levels
[2]; 10% ethanol
  solubility: 0.05 mg per mL
[2]; absolute alcohol
  solubility: 70 mg per mL
[2]; water
  solubility: < 0.05 mg per mL
